This is an account of results in patent publication US10183941B2, “Pyrimidine or pyridopyridone compound and application thereof” (GUANGZHOU BEBETTER MEDICINE TECHNOLOGY CO., LTD., priority 2015, dated 2019).

The structures appear in SMILES notation.

For assay [1], the system named is phosphorylation of Rb at Ser780 in MDA-MB-231 breast cancer cells. Put plainly: Western Blot experiment, Rb phosphorylation. Type of assay: cell-based. The conditions noted are these: MDA-MB-231 cells, 16 hours incubation, FIG. 1. Here is the method: MDA-MB-231 cells were grown in monolayer culture. […] The protein concentration was determined by the Branfor method. After being added with a loading buffer (Beyotime, # P0015L), the supernatant was boiled at 100° C. for 8 min, and the protein was separated by 8%-10% SDS-PAGE electrophoresis and then transferred to the PVDF membrane, and the membrane was blocked with 5% skimmed milk powder for 45 min, and then the cells were incubated overnight at 4° C. with primary antibody β-actin (CST, #4970), Rb (D20) Rabbit mAb (CST, #9313), Phospho-Rb(Ser780)(D59B7) Rabbit mAb (CST, #8180), and then the membrane was washed with TBST solution for 3×10 min. The cells were incubated in the dark at room temperature for 2 h with the fluorescent secondary antibody IRDye@680CW Goat (polyclonal) Anti-Rabbit 1gG (H+L), Highly Cross Adsorbed (LI-COR, #926-68071), and then the membrane was washed under the same condition above. Finally, the membrane was detected and imaged on a LI-COR Odyssey Infrared Fluorescence Scanning System, and the results are shown in FIG. 1.
CDK4/6 can make Rb protein lose the arrest on cell cycle by phosphorylating the tumor suppressor protein Rb protein. CDK4/6 inhibitor can prevent the inactivation of tumor suppressor protein Rb and thereby restore the arrest of Rb on cell cycle.
(A western blot detects proteins with antibodies after separation by electrophoresis.)

Assay [2] concerns the target T1, CDK6 (GST-CDK6(1-326end)) (Homo sapiens, UniProt Q00534).
T1 construct: GST-CDK6(1-326end); purchased Carna 04-107
The experiment in a line: CDK6 activity inhibition experiment (Caliper mobility shift assay). Type of assay: biochemical. Particulars: enzyme activity inhibition; read-out: CDK6 IC50 class. The protocol:
The activity of CDK6 protein kinase was measured using Caliper mobility shift assay (see J. Biomol Screen 14:31, 2009). […] 10 μl of the 2.5 times diluted CDK6 enzyme solution (GST-CDK6(1-326end); Carna, Cat. No 04-107) was added and then incubated at room temperature for 10 minutes, then 10 μl of the 2.5 times diluted substrate solution Peptide FAM-P8 (GL Biochem, Cat. No. 112396) was added. After being incubated at 28° C. for 40 minutes, 25 μl of stop solution was added to stop the reaction. Conversion rate data was read from Caliper EZ Reader II (Caliper Life Sciences). The conversion rate data was converted into inhibition rate data. […] Conversion rate data was converted into inhibition rate data according to the method described above. Inhibition rate %=(max−conversion rate)/(max−min)×100.

T1 sequence (Q00534 whole entry): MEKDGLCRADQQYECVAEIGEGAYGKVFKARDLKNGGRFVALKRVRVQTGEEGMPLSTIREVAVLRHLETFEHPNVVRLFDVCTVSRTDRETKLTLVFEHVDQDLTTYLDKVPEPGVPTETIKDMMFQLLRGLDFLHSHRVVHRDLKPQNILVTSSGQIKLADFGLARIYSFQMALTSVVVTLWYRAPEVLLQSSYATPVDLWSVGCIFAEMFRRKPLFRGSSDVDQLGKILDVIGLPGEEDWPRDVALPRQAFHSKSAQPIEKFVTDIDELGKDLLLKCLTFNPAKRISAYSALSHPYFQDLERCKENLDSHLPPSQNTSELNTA
T1 sequence (P30281 whole entry partner): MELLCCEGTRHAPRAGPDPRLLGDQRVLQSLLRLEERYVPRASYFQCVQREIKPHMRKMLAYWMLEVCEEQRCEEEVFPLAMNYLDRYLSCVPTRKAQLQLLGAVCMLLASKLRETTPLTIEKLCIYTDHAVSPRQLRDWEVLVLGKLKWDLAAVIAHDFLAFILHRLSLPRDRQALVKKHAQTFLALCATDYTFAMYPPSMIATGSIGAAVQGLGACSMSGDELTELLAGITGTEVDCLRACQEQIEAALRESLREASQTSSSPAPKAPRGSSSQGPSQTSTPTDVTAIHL

Turning to `CC(=O)c1c(C)c2cnc(Nc3ccc(C4CCN(CCS(C)(=O)=O)CC4)cn3)nc2n(C2CCCC2)c1=O` [Compound 1, 6-acetyl-8-cyclopentyl-5-methyl-2-((5-(1-(2-(methylsulfonyl)ethyl)piperidin-4-yl)pyridin-2-yl)amino)pyrido[2,3-d]pyrimidin-7(8H)-one], in assay [1], the “phosphorylation of Rb at Ser780 site” value is on record as “effectively reduce”. Further, the IC50 in assay [2] lay within 10 to 50 nM.

Broadly, the IC50 is the concentration that gives 50% inhibition.
